# Results: patent US12590100B2, “Tetrahydro-spiroindoline-pyrrolopyrrole-triones inhibitors of the NRF2-β-TrCP interaction for use in the treatment of fatty liver disease” (Universidad Autonoma De Madrid, priority 2021, dated 2026)
# Legend:
# NRF2 [1] = assay: NRF2 and HO-1 protein levels in mouse tissues after IP treatment; format: in vivo; settings: C57BL/6 mice, single IP 50 mg/kg, 120 min
# Method: FIG. 9. PHAR activates NRF2 and HO-1 in liver. A), UV and MS spectrum derived from the HPLC-MS analysis of PHAR dissolved in methanol for the identification of peaks associated with the compound. A blue rectangle surrounds the mass associated with PHAR. (B-D), the mice were treated with the vehicle (Tween-80+PBS, 1:13), 50 mg/kg of PHAR, or 50 mg/kg of SFN (saline) as a positive control by means of intraperitoneal (IP) injection for 2 hours. B), HPLC-MS UV and MS spectra derived from representative liver samples of both experimental groups used for determining PHAR levels in the liver 120 min after a single IP injection of 50 mg/kg. A blue rectangle surrounds the mass associated with PHAR. C), representative immunoblots showing NRF2, HO1, and LAMINB protein levels as the liver extract loading control. D), densitometric analysis of NRF2 protein levels of the representative immunoblots shown in (C), expressed as a ratio of NRF2/LAMINB. Statistical analysis was performed with one-way ANOVA followed by the Bonferroni test to compare inter-group differences. ***p<0.001 vs. vehicle. E) and F), the mice were treated daily with vehicle (Tween-80+PBS, 1:13) or 50 mg/kg of PHAR by means of intraperitoneal injection for 5 days. E), representative immunoblots showing NRF2, HO1, and LAMINB protein levels as loading control in brain, liver and kidney. F), densitometric analysis of NRF2 and HO1 protein levels in the liver tissue of the representative immunoblots shown in (E), expressed as a ratio of NRF2/LAMINB or HO1/LAMINB levels. Statistical analysis was performed with a Student t test to compare inter-group differences. **p<0.01 vs. vehicle.
# Once the mechanism of action of PHAR was deciphered, the capacity thereof to induce NRF2 levels in a murine model was evaluated. C57BL/6 mice received a single intraperitoneal (IP) injection of 50 mg/kg PHAR (Tween-80+PBS, 1:13) or 50 mg/kg of SFN (saline) as a positive control. The UV spectrum derived from the HPLC-MS study of the PHAR compound dissolved in methanol alone helped the identification of the peak associated with the compound for subsequent identification in the tissue analysis. […] Taking this as a reference point, liver tissue analysis was performed to check for the presence of PHAR therein.
# For this reason, C57BL/6 mice were treated daily by IP route for 5 days with 50 mg/kg of vehicle or 50 mg/kg of PHAR.
# NRF2 [2] = assay: NRF2 and HO-1 protein levels in MEFs (immunoblot); format: cell-based, mouse; settings: SFN 10 μM
# Method: (§1) FIG. 4. […] MEFs in serum-depleted conditions were subjected to (A-C) 1 μM, 3 μM, or 10 μM of PHAR and 10 μM of SFN as a positive control for 16 h; or (D-F) 10 μM of PHAR for the indicated times. In both experiments, 0.1% DMSO was used as a vehicle. A), representative immunoblots of NRF2, HO1, KEAP1, LAMINB, and GAPDH as loading controls. B) and C), densitometric analysis of NRF2 and HO1 protein levels of the representative immunoblots depicted in (A), expressed as a ratio of NRF2/LAMINB or HO1/GAPDH. The data is depicted as means±SEM (n=3). Statistical analysis was performed with one-way ANOVA followed by the Bonferroni test to check inter-group differences. *p<0.05; ***p<0.001 vs. 0. D), representative immunoblots of NRF2, HO1, KEAP1, LAMINB, and GAPDH as loading controls. E) and F), Densitometric analysis of NRF2 and HO1 protein levels of the representative immunoblots of (D), expressed as a ratio of NRF2/LAMINB or HO1/GAPDH. The data is depicted as means±SEM (n=3). Statistical analysis was performed with one-way ANOVA followed by the Bonferroni test to check inter-group differences. *p<0.05; ***p<0.001 vs. 0. G), Reporter MCF-7 c32 ARE-luc cells were subjected to 1 μM, 3 μM, or 9 μM of PHAR and 10 μM of SFN as a positive control. 0.1% DMSO was used as a vehicle. Luciferase activity was measured after 16 h of treatment. The data is depicted as means±SEM (n=3). Statistical analysis was performed with one-way ANOVA followed by the Bonferroni test to check inter-group differences. **p<0.01; ***p<0.001 vs. 0. H), MTT assay to evaluate cell viability/toxicity after treatments. I), Serum-deprived MEFs were subjected to 10 μM of PHAR. The mRNA levels of Hmox1, Nqo1, Aox1, Glc, and Gclm after 8 h of treatment were determined by means of pRT-PCR and normalized by means of average LaminB, Gapdh, and β-actin. The data is depicted as means±SEM (n=3). Statistical analysis was performed with the Student's T test. *p<0.05; **p<0.01 ***p<0.001 vs. 0.
# In order to empirically determine if PHAR activates NRF2, mouse embryo fibroblasts (MEFs) were treated with several doses of the compound (1 μM, 3 μM, and […]) for 16 h and with 10 μM of sulforaphane (SFN), one of main electrophilic activators of NRF2, used as a positive control.
# Moreover, a time course of NRF2 activation with PHAR (10 μM for 2, 4, and 8 h) or with SFN (10 μM, 8 h) was done as a positive control.
# [3] = tested on: transcriptional activity of NRF2; assay: ARE luciferase reporter assay in MCF-7 c32 ARE-LUC cells; format: cell-based; settings: 9 μM, 16 h
# Method: as §1, with “G), Reporter MCF-7 c32 ARE-luc cells were subjected to 1 μM, 3 μM, or 9 μM of PHAR and 10 μM of SFN as a positive control. 0.1% DMSO was used as a vehicle.” left out, “The data is depicted as means±SEM (n=3). Statistical analysis was performed with one-way ANOVA followed by the Bonferroni test to check inter-group differences. **p<0.01; ***p<0.001 vs. 0. H), MTT assay to evaluate cell viability/toxicity after treatments. I), Serum-deprived MEFs were subjected to 10 μM of PHAR.” left out, “The data is depicted as means±SEM (n=3). Statistical analysis was performed with the Student's T test. *p<0.05; **p<0.01 ***p<0.001 vs. 0.” left out
smiles,measurement,setting,value
"C[S+]([O-])CCCCN=C=S (stereo not shown) [SFN, sulforaphane, reference compound]",liver NRF2 levels,NRF2 [1],accumulation caused by SFN
same,NRF2 accumulation,"NRF2 [2]; 16 h, PHAR 1, 3, 9 μM",accumulation induced by SFN
same,"NRF2 accumulation, time course","NRF2 [2]; PHAR 10 μM for 2, 4, 8 h, 8 h",induction generated by SFN
same,increase in luciferase activity,[3],similar
